The source of these data is patent publication US6994991B1, “Identification of differentially methylated multiple drug resistance loci” (North Shore - Long Island Jewish Research Institute, priority 1998, dated 2006).

For the assay, the system named is MCF7/AdrR cells. The assay is described as follows: MTT viability assay of transfected drug resistant cells exposed to drug. The class given is cell-based, human. The conditions noted are these: for IC50: Homo sapiens; for sensitivity of cells expressing WTH3 to drug: MCF7/AdrR cells transfected with pcDNA/WTH3. From the text:
Reversion of MDR phenotype by overexpression of WTH3, RAB6 or RAB6C in MCF7/AdrR cells. WTH3, RAB6 and RAB6C cDNAs were inserted into pcDNA1.1/Amp expression vectors (Invitrogen Corp.) and transfected into drug resistant MCF7/AdrR cells (Lipofect Amine Plus™; Life Technologies, Inc., (GIBCO)). Expression of the exogenous WTH3 (pcDNA/WTH3), RAB6 (pcDNA/RAB6) or RAB6C (pcDNA/RAB6C) genes in transfected cells was confirmed by RT-PCR. Control cells were provided by transfection with pcDNA1.1/Amp which contained no insert. Cells were exposed to various concentrations of doxorubicin and viablity was determined after 72 hours by MTT assay. […] Cells expressing RAB6 or RAB6C cDNAs were tested for sensitivity to doxorubicin. […] The drug resistant control cells were 3.2 (P<0.0001) times more resistant to the antitumor drug than pcDNA/RAB6C containing cells and 2.2 (P<0.0001) times more resistant to the antitumor drug than pcDNA/RAB6 containing cells.

Where two headings read alike, the source gives them in different places.

With `COc1cccc2c1C(=O)c1c(O)c3c(c(O)c1C2=O)C[C@@](O)(C(=O)CO)C[C@@H]3O[C@H]1C[C@H](N)[C@H](O)[C@H](C)O1` [doxorubicin], the “sensitivity of cells expressing WTH3 to drug” value is on record as “increased sensitivity”. In addition, the IC50 (MCF7, 72 h, control cells transfected with pcDNA1.1/Amp (no insert), viability after 72 hours by MTT, read-out: Mean IC50± SD) is 4930 ± 300 nM. The IC50 (MCF7, 72 h, pcDNA/RAB6C containing cells, viability after 72 hours by MTT, read-out: Mean IC50± SD) turned out to be 1530 ± 130 nM. Besides, the IC50 (MCF7, 72 h, pcDNA/RAB6 containing cells, viability after 72 hours by MTT, read-out: Mean IC50± SD) was 2230 ± 170 nM. In addition, under “MCF7, MCF7/AdrR cells carrying endogenously expressed RAB6C, read-out: IC50 for doxorubicin”, the IC50 lay within 1000 to 2500 nM. In addition, the “resistance of control cells relative to pcDNA/RAB6C containing cells” value (control vs pcDNA/RAB6C cells, P<0.0001) is recorded as 3.2 times. Further, for the setting “control vs pcDNA/RAB6 cells, P<0.0001”, the “resistance of control cells relative to pcDNA/RAB6 containing cells” value was 2.2 times. Under “drug resistant cells transfected with a vector which expresses WTH3, RAB6C, or RAB6”, the “sensitivity to doxorubicin compared to cells transfected with a control vector” value was “increased sensitivity”.
Regarding `CC[C@]1(O)C[C@H]2CN(CCc3c([nH]c4ccccc34)[C@@](C(=O)OC)(c3cc4c(cc3OC)N(C=O)[C@H]3[C@@](O)(C(=O)OC)[C@H](OC(C)=O)[C@]5(CC)C=CCN6CC[C@]43[C@@H]65)C2)C1` [vincristine], the “sensitivity of cells expressing WTH3 to drug” value is “increased sensitivity”.
